One experiment deals with cord blood derived CD34+ cells. In words: Ex vivo culture of cord blood derived CD34+ cells, graft composition by flow. Type of experiment: cell-based, human. The conditions noted are these: expanded cord blood; UM171 35 nM, SR1 500 nM.
Turning to `CC(C)n1cnc2c(NCCc3ccc(O)cc3)nc(-c3csc4ccccc34)nc21` [SR1], the “dendritic cells population (CD86+CD34+) share of the graft” value is on record as “less than 5%”.

A further experiment deals with CD34 + CD45RA- cells. In words: Expansion of CD34+CD45RA- cells compared to DMSO (EC50). Format: cell-based. The conditions noted are these: concentration of compound necessary to expand 50% more of CD34+CD45RA- cells as compared to cells treated with DMSO.
For orientation: EC50 means the midpoint of the concentration-response curve. For the compound `COC(=O)c1ccc2c(c1)[nH]c1nc(Cc3cccc(C)c3)nc(NCCCN3CCCCC3)c12` [Compound 1], the EC50 stood at 38 nM.

On to `COC(=O)c1ccc2c(c1)[nH]c1nc(Cc3cccc(F)c3)nc(NCCCN3CCCCC3)c12` [Compound 2], for which the EC50 turned out to be 20 nM.

As for `COC(=O)c1ccc2c(c1)[nH]c1nc(Cc3cccs3)nc(NCCCN3CCCCC3)c12` [Compound 3], the EC50 turned out to be 8 nM.

`COC(=O)c1ccc2c(c1)[nH]c1nc(Cc3cccnc3)nc(NCCCN3CCCCC3)c12` [Compound 4]: the EC50 came out at 14 nM.

Take `CCOC(=O)c1ccc2c(c1)[nH]c1nc(Cc3ccccc3)nc(NCCCN3CCCCC3)c12` [Compound 5]: the EC50 is 154 nM.

For the compound `COC(=O)c1ccc2c(c1)[nH]c1nc(Cc3cccc(C(O)C(F)(F)F)c3)nc(NCCCN3CCCCC3)c12` (centres unmarked) [Compound 6], the EC50 stood at 16 nM.

Take `COC(=O)c1ccc2c(c1)[nH]c1nc(Cc3cccc(C(=O)C(F)(F)F)c3)nc(NCCCN3CCCCC3)c12` [Compound 7]: the EC50 is 31 nM.

Regarding `COC(=O)c1ccc2c(c1)[nH]c1nc(Cc3ccc4ccccc4c3)nc(NCCCN3CCCCC3)c12` [Compound 8], the EC50 came out at 150 nM.

Regarding `C#CCOC(CNc1nc(Cc2ccccc2)nc2[nH]c3cc(C(=O)OC)ccc3c12)CN1CCCCC1` (centres unmarked) [Compound 9], the EC50 is 24 nM.

For the compound `COC(=O)c1ccc2c(c1)[nH]c1nc(Cc3ccccc3)nc(NCC(O)CN3CCCCC3)c12` (centres unmarked) [Compound 10], the EC50 was 7 nM.

`COC(=O)c1ccc2c(c1)[nH]c1nc(Cc3ccccc3)nc(NCCCN(C)CC(O)COCc3ccccc3)c12` (centres unmarked) [Compound 11]: the EC50 was 101 nM.

In the case of `CNC(=O)c1ccc2c(c1)[nH]c1nc(Cc3ccccc3)nc(NCCCN3CCCCC3)c12` [Compound 12], the EC50 came out at 2440 nM.

For the compound `COC(=O)c1ccc2c(c1)[nH]c1nc(C(OC)c3ccccc3)nc(NCCCN3CCCCC3)c12` (centres unmarked) [Compound 13], the EC50 is 68 nM.

For `COC(=O)c1ccc2c(c1)[nH]c1nc(C(O)c3ccccc3)nc(NCCCN3CCCCC3)c12` (centres unmarked) [Compound 14], the EC50 was determined as 4 nM.

Turning to `COC(=O)c1ccc2c(c1)[nH]c1nc(Cc3ccccc3)nc(SCCCN3CCCCC3)c12` [Compound 15], the EC50 was determined as 327 nM.

On to `COC(=O)c1ccc2c(c1)[nH]c1nc(C(=O)c3ccccc3)nc(SCCCN3CCCCC3)c12` [Compound 16], for which the EC50 is 5 nM.

As for `COC(=O)c1ccc2c(c1)[nH]c1nc(Cc3ccccc3)nc(CCCCN3CCCCC3)c12` [Compound 17], the EC50 came out at 15 nM.

For `COC(=O)c1ccc2c(c1)[nH]c1nc(C(C)c3ccccc3)nc(NCCCN3CCCCC3)c12` (centres unmarked) [Compound 18], the EC50 is 67 nM.

For `COC(=O)c1ccc2c(c1)[nH]c1nc(Cc3cccc(CO)c3)nc(NCCCN(C)CCCN)c12` [Compound 19], the EC50 was determined as 38 nM.

Regarding `COC(=O)c1ccc2c(c1)[nH]c1nc(Cc3cccc(CC(=O)O)c3)nc(NCCCN(C)CCCN)c12` [Compound 20], the EC50 was found to be 113 nM.

Take `COC(=O)c1ccc2c(c1)[nH]c1nc(Cc3ccccc3)nc(NCCCN(C)CCCNc3ncnc4[nH]c5ccccc5c34)c12` [Compound 21]: the EC50 is 19 nM.

For `CN1CCN(c2ccc(CNc3nc(Cc4ccccc4)nc4[nH]c5cc(-c6nnn(C)n6)ccc5c34)cc2)CC1` [Compound 22], the EC50 came out at 100 nM.

As to `CN(CCCNC(=O)COCCOCCN)CCCNc1nc(Cc2ccccc2)nc2[nH]c3cc(-c4nnn(C)n4)ccc3c12` [Compound 23], the 50% effective concentration (EC50) was found to be 249 nM.

With `CN(CCCN)CCCNc1nc(Cc2ccccc2Br)nc2[nH]c3cc(-c4nnn(C)n4)ccc3c12` [Compound 24], the EC50 came to 51 nM.

As for `CN(CCCN)CCCNc1nc(Cc2cccc(Br)c2)nc2[nH]c3cc(-c4nnn(C)n4)ccc3c12` [Compound 25], the EC50 was 115 nM.

As to `CN(CCC[N+](C)(C)C)c1nc(Cc2ccccc2)nc2[nH]c3cc(-c4nnn(C)n4)ccc3c12` [Compound 26], the EC50 came out at 484 nM.

For `Cn1nnc(-c2cnc3c(c2)[nH]c2nc(Cc4ccccc4)nc(N[C@H]4CC[C@H](N)CC4)c23)n1` [Compound 27], the EC50 was determined as 367 nM.

Consider `Cn1nnc(-c2ccc3c(c2)[nH]c2ncnc(NCCCN4CCC(O)CC4)c23)n1` [Compound 28], for which the EC50 was 277 nM.

Consider `Cn1nnc(-c2ccc3c(c2)[nH]c2ncnc(NCCCCN4CCCCC4)c23)n1` [Compound 29], for which the EC50 amounted to 36 nM.

For the compound `CNCCCNc1ncnc2[nH]c3cc(-c4nnn(C)n4)ccc3c12` [Compound 30], the EC50 worked out at 135 nM.

Take `CCN(CC)CCN(CC)c1nc(Cc2ccccc2)nc2[nH]c3cc(C(=O)OC)cnc3c12` [Compound 31]: the concentration for a half-maximal effect (EC50) is 394 nM.

For the compound `C#Cc1cccc(Cc2nc(NCCN(C)CCN)c3c(n2)[nH]c2cc(-c4nnn(C)n4)ccc23)c1` [Compound 32], the EC50 stood at 104 nM.

Consider `COC(=O)c1ccc2c(c1)[nH]c1nc(Cc3ccccc3)nc(NCCNS(C)(=O)=O)c12` [Compound 33], for which the EC50 turned out to be 33 nM.

Turning to `COC(=O)c1ccc2c(c1)[nH]c1cc(Cc3cccc(OC)c3)nc(NCCCCN3CCCC3)c12` [Compound 34], the EC50 was 76 nM.

With `COC(=O)c1ccc2c(c1)[nH]c1cc(Cc3cccc(O)c3)nc(NCCCCN3CCCC3)c12` [Compound 35], the EC50 was 44 nM.

With `[H]/N=C(/N)NCCNc1nc(Cc2ccccc2)nc2[nH]c3cc(C(=O)OC)ccc3c12` [Compound 36], the EC50 amounted to 68 nM.

On to `COC(=O)c1ccc2c(c1)[nH]c1nc(Cc3ccccc3)nc(NCCN(C)C(C)=O)c12` [Compound 37], for which the EC50 was 83 nM.

Regarding `COC(=O)c1ccc2c(c1)[nH]c1cc(Cc3cccnc3)cc(NCCCN3CCOCC3)c12` [Compound 38], the 50% effective concentration (EC50) worked out at 704 nM.

`COC(=O)c1ccc2c(c1)[nH]c1cc(Cc3ccsc3)nc(N[C@H]3CC[C@H](N)CC3)c12` [Compound 39]: the EC50 stood at 114 nM.

Turning to `COC(=O)c1ccc2c(c1)[nH]c1nc(Cc3ccccc3)nc(NCCCCCN(C)C)c12` [Compound 40], the EC50 stood at 2 nM.

Turning to `COC(=O)c1ccc2c(c1)[nH]c1nc(Cc3ccccc3)nc(NCCCCCCCCN)c12` [Compound 41], the EC50 worked out at 39 nM.

`COC(=O)c1ccc2c(c1)[nH]c1nc(Cc3ccccc3)nc(NCCN3CCOCC3)c12` [Compound 42]: the 50% effective concentration (EC50) stood at 12 nM.

Turning to `CNS(=O)(=O)c1cccc(Nc2ncnc3[nH]c4cc(C(=O)OC)ccc4c23)c1` [Compound 43], the EC50 was determined as 263 nM.

`COC(=O)c1ccc2c(c1)[nH]c1nc(Cc3ccccc3)nc(NCC(O)CO)c12` (centres unmarked) [Compound 44]: the EC50 turned out to be 59 nM.

Consider `COC(=O)c1ccc2c(c1)[nH]c1nc(Cc3ccccc3)nc(NCCN(C)CC(F)F)c12` [Compound 45], for which the EC50 turned out to be 336 nM.

Take `Cn1nnc(-c2ccc3c(c2)[nH]c2nc(Cc4ccccc4)nc(NCCOCCO)c23)n1` [Compound 46]: the EC50 is 141 nM.

Turning to `COC(=O)c1ccc2c(c1)[nH]c1nc(Cc3ccccc3)nc(NCCCO)c12` [Compound 47], the EC50 worked out at 26 nM.

Take `COC(=O)c1ccc2c(c1)[nH]c1nc(Cc3ccccc3)nc(NCCCN(C)CCCNC(=N)N)c12` [Compound 48]: the EC50 came to 61 nM.

As for `COC(=O)c1ccc2c(c1)[nH]c1nc(Cc3ccccc3)nc(NCCCN3C(=O)CCC3=O)c12` [Compound 49], the EC50 was found to be 41 nM.

Consider `COC(=O)c1ccc2c(c1)[nH]c1nc(Cc3ccccc3)nc(NCCS(N)(=O)=O)c12` [Compound 50], for which the EC50 turned out to be 67 nM.

Take `CNS(=O)(=O)c1ccc(CNc2nc(Cc3ccccc3)nc3[nH]c4cc(C(=O)OC)ccc4c23)cc1` [Compound 51]: the EC50 turned out to be 62 nM.

`COC(=O)c1ccc2c(c1)[nH]c1nc(Cc3ccccc3)nc(NCC3CCCNC3)c12` (centres unmarked) [Compound 52]: the EC50 came to 7 nM.

As to `COC(=O)c1ccc2c(c1)[nH]c1nc(CCc3ccccc3)nc(NCCCN(C)CC(O)C[N+](C)(C)C)c12` (centres unmarked) [Compound 53], the EC50 worked out at 117 nM.

Consider `COC(=O)c1ccc2c(c1)[nH]c1nc(Cc3ccccc3)nc(NCCCCO)c12` [Compound 54], for which the EC50 worked out at 118 nM.

For `COC(=O)c1ccc2c(c1)[nH]c1nc(Cc3ccccc3)nc(NCC3CCCN(C(=O)OC)C3)c12` (centres unmarked) [Compound 55], the EC50 stood at 79 nM.

With `COC(=O)c1ccc2c(c1)[nH]c1nc(Cc3ccccc3)nc(NCc3cnc(C)cn3)c12` [Compound 56], the EC50 is 48 nM.

For the compound `CCNCCNc1nc(Cc2ccccc2)nc2[nH]c3cc(C(=O)OC)ccc3c12` [Compound 57], the EC50 is 4.8 nM.

As for `COC(=O)c1ccc2c(c1)[nH]c1nc(Cc3ccccc3)nc(NCCC#N)c12` [Compound 58], the EC50 was determined as 79 nM.

Regarding `COC(=O)c1ccc2c(c1)[nH]c1nc(Cc3ccccc3)nc(NCCNC3=NCCC3)c12` [Compound 59], the EC50 stood at 75 nM.

As to `COC(=O)c1ccc2c(c1)[nH]c1nc(Cc3ccccc3)nc(NNc3ccc(S(C)(=O)=O)cc3)c12` [Compound 60], the EC50 turned out to be 23 nM.

`COC(=O)c1ccc2c(c1)[nH]c1nc(Cc3ccccc3)nc(NCCN(C(C)C)C(C)C)c12` [Compound 61]: the EC50 came to 10.1 nM.

Source of the values: patent publication US12011460B2, “Expansion of NK and DC cells in vivo mediating immune response” (UNIVERSITE DE MONTREAL, priority 2018, dated 2024).
